Measured values from PMC8123555, “Precision targeting of the plasminogen activator inhibitor‐1 mechanism increases efficacy of fibrinolytic therapy in empyema” (Physiological Reports, 2021).

Key:
[1] = system: Streptococcus pneumoniae induced empyema; assay: Fibrinolytic therapy of S. pneumoniae induced empyema in rabbits (GLIS, pleural thickening, WBC differential); format: in vivo, rabbit
Protocol: All animal procedures were approved by the Institutional Animal Care and Use Committee at The University of Texas Health Science Center at Tyler (IACUC protocols 499,616,617). Studies used female, pathogen‐free New Zealand white rabbits (3.0–3.6 kg; average age 18 weeks) from Charles River Laboratories (Wilmington, MA). These studies required a total of 107 rabbits, 43 for the model of TCN‐induced pleural injury and 64 for the model of empyema. […] Briefly, a 3 ml mixture of TCN in ascorbic acid (20 mg/ml TCN (T3258, Sigma‐Aldrich), 2.5 mg/ml ascorbic acid (A7506, Sigma‐Aldrich) and lidocaine (1 mg/ml, UTHCT Compounding Pharmacy), was delivered by intrapleural injection. A model of acute empyema in rabbits was induced as described previously (Komissarov et al., 2016). Briefly, 1–5 × 10^8 cfu of S. pneumoniae (D39 strain, National Collection of Type Cultures, Salisbury UK) in 3 ml of 0.5% brain‐heart infusion agar (BD 238400, BD Diagnostic Systems) was delivered by intrapleural injection. Clavomox (10 mg/kg, subcutaneous, daily for 1–3 days as clinically indicated by Attending Veterinarian) (10000485, Zoetis) was started at 28–30 h post‐infection. Accumulation of pleural fluid and fibrin deposition was monitored using ultrasonography; detailed in the ultrasonography subsection. After 48 or 72 h for TCN‐induced pleural injury and empyema, respectively, intrapleural therapeutics were administered depending on treatment group via an 18‐gauge catheter, which was flushed with 0.5 ml PBS. In all experiments, samples of pleural fluids (0.5 ml) from each rabbit were collected prior to and at 10, 20, and 40 min after PAI‐1‐TFT and processed for later analysis (Florova et al., 2015; Karandashova et al., 2013; Komissarov et al., 2013, 2016). Anesthesia, postoperative pain medication, and animal care were provided as reported previously (Florova et al., 2015; Karandashova et al., 2013; Komissarov et al., 2013, 2016). with details provided in the supplement. Animals were monitored carefully for signs of distress, pain, and worsening clinical status. Euthanasia was accomplished using intravenous injection of 1 ml of commercial euthanasia solution (sodium pentobarbital 390 mg/ml and phenytoin 50 mg/ml) followed by exsanguination.
Development of pleural injury was monitored via ultrasonography. Briefly, B‐mode ultrasonography of the chest was performed (Komissarov et al., 2013, 2015) using a Logiq e system (GE Healthcare, Milwaukee, WI) using R5.2.x software and a multifrequency transducer model 12L‐RS at a working frequency of 10 MHz, as previously described (Komissarov et al., 2016).
For each animal, gross lung injury scores (GLIS) were calculated as previously described (Florova et al., 2015; Karandashova et al., 2013; Komissarov et al., 2013). PAI‐1‐TFT was considered successful when GLIS ≤10. Multiple fibrin webs or sheets connecting the visceral and parietal pleura or “too numerous to count” (TNTC) strands and a fibrinous lung coating correlated with a GLIS = 50. Pleural thickening was measured using morphometry, as previously described (Komissarov et al., 2016).

FITC‐fibrin = assay: Fibrinolytic activity in pleural fluids (FITC-fibrin film assay), TCN-induced injury; format: in vivo, rabbit; settings: PAI-1-TFT with 2.0 mg/kg DSP, chemically induced injury; for Steady-state level of pleural fluid fibrinolytic activity: relative to supplemented baseline
Protocol: A Pilot Fibrinolytic Assay (FPA96F) was used to measure fibrinolytic potential (Beckert et al., 2019; Florova et al., 2015) and fibrinolytic activity (Florova et al., 2015, 2018; Komissarov et al., 2016) in pleural fluid samples. To prepare a FITC‐fibrin film, a 1:1 mixture of FITC‐tagged and unlabeled fibrinogen (0.4 mg/ml) in 0.05 M Hepes/NaOH (pH 7.5, 130 mM NaCl, 5 mM CaCl2) buffer at room temperature was transferred to black 96‐well flat bottom plates from Costar (Corning Inc, NY). Human thrombin (final concentration 10 nM) was added to each well and plates were dried overnight in a dark chemical hood at room temperature. 96‐well plates with FITC‐fibrin film were washed three times with 0.3 ml of cold Hepes/NaOH buffer and stored at −20°C up to one year. Fibrinolytic activity in pleural fluids was calculated from the slopes of time‐dependences of an increase in the fluorescence emission at 512 nm (excitation at 490 nm) due to the degradation of FITC‐fibrin. Fibrinolytic potential was determined as the difference between fibrinolytic activity in samples of pleural fluid at baseline (BL) or 24 h measured with and without supplementation with sctPA (Florova et al., 2015). To determine whether PAI‐1‐TFT affects fibrinolytic potential in rabbits, BL values were plotted against fibrinolytic potential at 24 h and the linear correlation was determined using Sigmaplot 14.0.

[2] = plasminogen activator 0.5 mg/kg alone, empyema

Row | Substance | Outcome of fibrinolytic therapy (GLIS) [1, 2] | Outcome of fibrinolytic therapy (GLIS) ([1]; sctPA 0.25 mg/kg alone, acute empyema) | GLIS of representative animal ([1]; sctPA 0.25 mg/kg alone, photograph 24 h after treatment) | Minimal effective dose (MED) of sctPA with DSP ([1]; with 8.0 mg/kg DSP, acute empyema) | kobs of decrease in pleural fluid fibrinolytic activity to steady state (FITC‐fibrin) | Steady-state level of pleural fluid fibrinolytic activity (FITC‐fibrin)
1 | Alteplase [sctPA, reference compound] | ineffective | ineffective | 50 | 0.25 mg/kg | 0.40 ± 0.11 min⁻¹ | 2.7%
2 | Prourokinase [scuPA] | ineffective |  |  |  | 0.09 ± 0.06 min⁻¹ | 5.6%
